Data on three compounds can be found in patent US20200345006A1, “METHODS OF REDUCING NEMATODE INFECTION IN PLANTS” (The University of North Carolina at Charlotte, priority 2019, published 2020).

Broadly, the mortality is the share of the test organisms that died.

The structures appear in SMILES notation.

For assay [1], the system named is H. glycines second-stage nematodes (J2), races 2 (HG type 1.2.5.7) and 5 (HG type 2.5.7). Kind of assay: whole plant or invertebrate. To be noted: for nematocidal activity against races 2 and 5: 24 hours incubation, 0.5 and 1.0 mg/ml, overall statement; for mortality at 500 µg/mL / mortality at 1000 µg/mL: Heterodera glycines, 24 h, read-out: J2 mortality. The protocol: Determination of the nematocidal activity of phenolic compounds was conducted as previously described. Briefly, approximately 400 freshly hatched J2s in 900 μl of water were added to each well of a 24-well Microtest™ tissue culture plate, and 100 μl of the compound test solution was added at concentrations of 5 mg/ml and 10 mg/ml. Therefore, the final concentration of each compound in each suspension is 0.5 mg/ml and 1.0 mg/ml. Control samples received 100 μl of water. Three replicates per concentration were used. The plate was covered with the original solid lid and wrapped with Parafilm®, and samples were kept at 27° C. in an incubator. After 24 hours of incubation, dead and alive J2 nematodes were counted using a stereo microscope Leica M165 FC (×40) to evaluate mortality rates. J2 mortality can be estimated according to the mean percentage of dead J2 in the total number of J2 (alive and dead). Nematodes are considered dead when no movement was observed during 3 seconds of observation. The compounds 3,4-dihydroxybenzoic acid and 4-hydroxybenzaldehyde are commercially available at Sigma-Aldrich, USA.

The test system of assay [2] is root-knot nematode (Meloidogyne incognita). To be noted: known from prior reports; cited from earlier work.
Another assay has as its system nematode. Conditions: general statement; cited from earlier work.

Turning to `O=C(O)c1ccc(O)c(O)c1` [3,4-dihydroxybenzoic acid], in assay [1], the “nematocidal activity against races 2 and 5” value was “demonstrated nematocidal activity”; the mortality at 500 µg/mL is 19%; the mortality at 1000 µg/mL stood at 30%. Moreover, the “nematocidal activity against root-knot nematode” value in assay [2] was “showing nematocidal activity”.
As for `O=Cc1ccc(O)cc1` [4-hydroxybenzaldehyde], in assay [1], the “nematocidal activity against races 2 and 5” value was “demonstrated nematocidal activity”; the mortality at 500 µg/mL was determined as 68%; the mortality at 1000 µg/mL was 96%.
For `O=C(O)c1ccccc1O` [SA, salicylic acid], the direct nematocidal activity result in the assay with nematode is “no direct nematocidal activity”.
